Measured values published in PubChem BioAssay AID328 (DTP/NCI, 2004).
Where “and” joins values, the source holds several entries; their conditions need not be identical. Equal entries are not always repeated. Toxic doses and inconclusive results are not listed.

System: BDF1 mice, P388 leukemia ip, median survival T/C
Experiment: NCI In Vivo Anticancer Drug Screen. Data for tumor model P388 Leukemia (intraperitoneal) in B6D2F1 (BDF1) mice
Settings: endpoint: median survival time, higher = longer survival
Procedure, shortened: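 Reported as T/C, where T is the survival measurement in dosed animals and C the same measurement in vehicle controls.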

[1] = dose: 12.5 mg/kg/injection, schedule: Q01DX009 (ip), vehicle: saline
[2] = dose: 25.0 mg/kg/injection, schedule: Q01DX009 (ip), vehicle: saline
[3] = dose: 200.0 mg/kg/injection, schedule: Q01DX009 (ip), vehicle: saline
[4] = dose: 100.0 mg/kg/injection, schedule: Q01DX009 (ip), vehicle: Klucel (hydroxypropylcellulose) (HPC)
[5] = dose: 5.0 mg/kg/injection, schedule: Q04DX003 (ip), vehicle: saline

O=P1(NCCCl)OCCCN1CCCl (stereo unspecified)
T/C (dose: 0.8 mg/kg/injection, schedule: Q01DX010 (ip), vehicle: saline): 105 % of control
T/C (dose: 1.5 mg/kg/injection, schedule: Q01DX010 (ip), vehicle: saline): 100 % of control
T/C (dose: 3.0 mg/kg/injection, schedule: Q01DX010 (ip), vehicle: saline): 110 % of control
T/C (dose: 3.12 mg/kg/injection, schedule: Q01DX009 (ip), vehicle: saline): 99 % of control
T/C (dose: 6.0 mg/kg/injection, schedule: Q01DX010 (ip), vehicle: saline): 110 % of control
T/C (dose: 6.25 mg/kg/injection, schedule: Q01DX009 (ip), vehicle: saline): 107 % of control and 115 % of control
T/C [1]: 173 % of control
T/C (dose: 12.5 mg/kg/injection, schedule: Q01DX010 (ip), vehicle: saline): 177 % of control
T/C [2]: 166 % of control and 196 % of control
T/C (dose: 25.0 mg/kg/injection, schedule: Q01DX009 (ip), vehicle: water): 156 % of control
T/C (dose: 25.0 mg/kg/injection, schedule: Q01DX010 (ip), vehicle: saline): 216 % of control
T/C (dose: 50.0 mg/kg/injection, schedule: Q01DX009 (ip), vehicle: saline): 121 % of control
T/C (dose: 50.0 mg/kg/injection, schedule: Q01DX009 (ip), vehicle: water): 241 % of control
T/C (dose: 50.0 mg/kg/injection, schedule: Q01DX010 (ip), vehicle: saline): 200 % of control
T/C (dose: 100.0 mg/kg/injection, schedule: Q01DX009 (ip), vehicle: saline): 105 % of control
T/C (dose: 100.0 mg/kg/injection, schedule: Q01DX010 (ip), vehicle: saline): 300 % of control
T/C [3]: 87 % of control
T/C (dose: 200.0 mg/kg/injection, schedule: Q01DX009 (ip), vehicle: water): 98 % of control
T/C (dose: 200.0 mg/kg/injection, schedule: Q01DX010 (ip), vehicle: saline): 105 % of control

CCOC(=O)/C(C#N)=C1/CCCN1
T/C (dose: 100.0 mg/kg/injection, schedule: Q01DX009 (ip), vehicle: saline with Tween-80): 104 % of control
T/C (dose: 200.0 mg/kg/injection, schedule: Q01DX009 (ip), vehicle: saline with Tween-80): 100 % of control
T/C (dose: 400.0 mg/kg/injection, schedule: Q01DX009 (ip), vehicle: saline with Tween-80): 100 % of control

O=C(O)C1(O)CC(O)C(O)C(O)C1 (stereo unspecified)
T/C (dose: 100.0 mg/kg/injection, schedule: Q04DX002 (ip), vehicle: saline with Tween-80): 96 % of control
T/C (dose: 200.0 mg/kg/injection, schedule: Q04DX002 (ip), vehicle: saline with Tween-80): 94 % of control
T/C (dose: 400.0 mg/kg/injection, schedule: Q04DX002 (ip), vehicle: saline with Tween-80): 86 % of control

COC(=O)C1C2C(C)CC3(CC12C)OCCO3 (stereo unspecified)
T/C (dose: 100.0 mg/kg/injection, schedule: Q04DX003 (ip), vehicle: saline with Tween-80): 90 % of control
T/C (dose: 200.0 mg/kg/injection, schedule: Q04DX003 (ip), vehicle: saline with Tween-80): 109 % of control
T/C (dose: 400.0 mg/kg/injection, schedule: Q04DX003 (ip), vehicle: saline with Tween-80): 100 % of control

CCOC(=O)CCC(NC(=O)Cc1ccc(NC(=O)C(F)(F)F)cc1)C(=O)OCC (stereo unspecified)
T/C [4]: 100 % of control
T/C (dose: 200.0 mg/kg/injection, schedule: Q01DX009 (ip), vehicle: Klucel (hydroxypropylcellulose) (HPC)): 95 % of control
T/C (dose: 400.0 mg/kg/injection, schedule: Q01DX009 (ip), vehicle: Klucel (hydroxypropylcellulose) (HPC)): 104 % of control

O=C(/C=C/c1ccc2c(c1)OCO2)/C=C/c1ccc2c(c1)OCO2
T/C [1]: 101 % of control
T/C (dose: 12.5 mg/kg/injection, schedule: Q04DX003 (ip), vehicle: saline): 105 % of control
T/C [2]: 96 % of control
T/C (dose: 25.0 mg/kg/injection, schedule: Q04DX003 (ip), vehicle: saline): 112 % of control
T/C (dose: 50.0 mg/kg/injection, schedule: Q04DX003 (ip), vehicle: saline): 114 % of control
T/C (dose: 100.0 mg/kg/injection, schedule: Q04DX003 (ip), vehicle: saline): 114 % of control
T/C [3]: 92 % of control
T/C (dose: 200.0 mg/kg/injection, schedule: Q04DX003 (ip), vehicle: saline): 114 % of control

CO[C@@]12[C@H](COC(N)=O)C3=C(C(=O)C(C)=C(N)C3=O)N1C[C@@H]1N[C@@H]12
T/C (dose: 0.03 mg/kg/injection, schedule: Q01DX010 (ip), vehicle: water): 100 % of control
T/C (dose: 0.06 mg/kg/injection, schedule: Q01DX010 (ip), vehicle: saline): 123 % of control
T/C (dose: 0.06 mg/kg/injection, schedule: Q01DX010 (ip), vehicle: water): 115 % of control
T/C (dose: 0.13 mg/kg/injection, schedule: Q01DX010 (ip), vehicle: water): 168 % of control
T/C (dose: 0.25 mg/kg/injection, schedule: Q01DX010 (ip), vehicle: saline): 159 % of control and 161 % of control
T/C (dose: 0.25 mg/kg/injection, schedule: Q01DX010 (ip), vehicle: water): 200 % of control
T/C (dose: 0.5 mg/kg/injection, schedule: Q01DX010 (ip), vehicle: saline): 166 % of control and 213 % of control
T/C (dose: 0.5 mg/kg/injection, schedule: Q01DX010 (ip), vehicle: water): 242 % of control
T/C (dose: 1.0 mg/kg/injection, schedule: Q01DX010 (ip), vehicle: saline): 250 % of control and 180 % of control
T/C (dose: 1.0 mg/kg/injection, schedule: Q01DX010 (ip), vehicle: water): 215 % of control
T/C (dose: 1.08 mg/kg/injection, schedule: Q04DX003 (ip), vehicle: saline): 194 % of control and 196 % of control
T/C (dose: 1.8 mg/kg/injection, schedule: Q04DX003 (ip), vehicle: saline): 243 % of control and 222 % of control
T/C (dose: 2.0 mg/kg/injection, schedule: Q01DX010 (ip), vehicle: saline): 90 % of control and 114 % of control
T/C (dose: 2.0 mg/kg/injection, schedule: Q01DX010 (ip), vehicle: water): 105 % of control
T/C (dose: 3.0 mg/kg/injection, schedule: Q04DX003 (ip), vehicle: saline): 236 % of control and 244 % of control
T/C (dose: 4.0 mg/kg/injection, schedule: Q01DX001 (ip), vehicle: saline): 157 % of control
T/C [5]: 90 % of control and 112 % of control
T/C (dose: 6.0 mg/kg/injection, schedule: Q01DX001 (ip), vehicle: saline): 176 % of control
T/C (dose: 8.0 mg/kg/injection, schedule: Q01DX001 (ip), vehicle: saline): 176 % of control

CC(=O)Nc1ccc2c(c1)Cc1cc(NC=O)ccc1-2
T/C (dose: 0.75 mg/kg/injection, schedule: Q01DX009 (ip), vehicle: Klucel (hydroxypropylcellulose) (HPC)): 89 % of control
T/C (dose: 3.0 mg/kg/injection, schedule: Q01DX009 (ip), vehicle: Klucel (hydroxypropylcellulose) (HPC)): 92 % of control
T/C (dose: 12.5 mg/kg/injection, schedule: Q01DX009 (ip), vehicle: Klucel (hydroxypropylcellulose) (HPC)): 96 % of control
T/C [4]: 91 % of control
T/C (dose: 100.0 mg/kg/injection, schedule: Q04DX003 (ip), vehicle: Klucel (hydroxypropylcellulose) (HPC)): 87 % of control

C1CN1P1(N2CC2)=NP(N2CC2)(N2CC2)=NP(N2CC2)(N2CC2)=NP(N2CC2)(N2CC2)=N1
T/C (dose: 0.27 mg/kg/injection, schedule: Q01DX009 (ip), vehicle: saline): 116 % of control
T/C (dose: 0.4 mg/kg/injection, schedule: Q01DX009 (ip), vehicle: saline): 112 % of control
T/C (dose: 0.62 mg/kg/injection, schedule: Q01DX009 (ip), vehicle: saline): 172 % of control
T/C (dose: 0.63 mg/kg/injection, schedule: Q04DX003 (ip), vehicle: saline): 113 % of control
T/C (dose: 1.25 mg/kg/injection, schedule: Q01DX009 (ip), vehicle: saline): 159 % of control
T/C (dose: 1.9 mg/kg/injection, schedule: Q04DX003 (ip), vehicle: saline): 154 % of control
T/C (dose: 2.5 mg/kg/injection, schedule: Q01DX009 (ip), vehicle: saline): 200 % of control
T/C (dose: 2.5 mg/kg/injection, schedule: Q04DX003 (ip), vehicle: saline): 166 % of control
T/C (dose: 2.9 mg/kg/injection, schedule: Q04DX003 (ip), vehicle: saline): 168 % of control
T/C (dose: 4.4 mg/kg/injection, schedule: Q04DX003 (ip), vehicle: saline): 186 % of control
T/C [5]: 219 % of control
T/C (dose: 6.6 mg/kg/injection, schedule: Q01DX009 (ip), vehicle: saline): 240 % of control
T/C (dose: 10.0 mg/kg/injection, schedule: Q04DX003 (ip), vehicle: saline): 225 % of control and 223 % of control
T/C (dose: 13.2 mg/kg/injection, schedule: Q04DX003 (ip), vehicle: saline): 100 % of control
T/C (dose: 13.3 mg/kg/injection, schedule: Q04DX003 (ip), vehicle: saline): 223 % of control
T/C (dose: 15.0 mg/kg/injection, schedule: Q01DX009 (ip), vehicle: saline): 155 % of control
T/C (dose: 30.0 mg/kg/injection, schedule: Q04DX003 (ip), vehicle: saline): 285 % of control
T/C (dose: 40.0 mg/kg/injection, schedule: Q04DX003 (ip), vehicle: saline): 105 % of control
